Laboratory results from US10457687B2, “Aminoacid derivatives, a process for their preparation and pharmaceutical compositions containing them” (LES LABORATOIRES SERVIER, priority 2015, dated 2019).

Biological target: Mcl-1 protein (Homo sapiens, UniProt Q07820)
Test: Inhibition of Mcl-1 by the fluorescence polarisation technique (Method 1 or Method 2)
Assay type: binding
Settings: for IC50: fluorescence polarisation, Fluorescein labelled ligand, Method 1 (not underlined) or Method 2 (underlined), read-out: IC50 (μM) Mcl-1 FP
Description: The relative binding potency of each compound was determined via Fluorescence Polarisation (FP).
An 11 point serial dilution of each compound was prepared in DMSO and 2 μl transferred into flat bottomed, low binding, 384-well plate (final DMSO concentration 5%). 38 μl of buffer (10 mM 4-(2-hydroxyethyl)-1-piperazineethanesulfonic acid [HEPES], 150 mM NaCl, 0.05% Tween 20, pH 7.4), containing the Fluorescein labelled ligand (final concentration 1 nM) and Mcl-1 protein (final concentration 5 nM) was then added.
An 11 point serial dilution of each compound was prepared in DMSO and 2 μl transferred into flat bottomed, low binding, 384-well plate (final DMSO concentration 5%). 38 μl of buffer (20 mM Na2HPO4, 1 mM EDTA, 50 mM NaCl, pH 7.4), containing the Fluorescein labelled ligand (final concentration 10 nM) and Mcl-1 protein (final concentration 10 nM) was then added.

[1] = partial inhibitors, @ 50 μM test compound

Chain of Mcl-1 protein (Q07820 whole entry): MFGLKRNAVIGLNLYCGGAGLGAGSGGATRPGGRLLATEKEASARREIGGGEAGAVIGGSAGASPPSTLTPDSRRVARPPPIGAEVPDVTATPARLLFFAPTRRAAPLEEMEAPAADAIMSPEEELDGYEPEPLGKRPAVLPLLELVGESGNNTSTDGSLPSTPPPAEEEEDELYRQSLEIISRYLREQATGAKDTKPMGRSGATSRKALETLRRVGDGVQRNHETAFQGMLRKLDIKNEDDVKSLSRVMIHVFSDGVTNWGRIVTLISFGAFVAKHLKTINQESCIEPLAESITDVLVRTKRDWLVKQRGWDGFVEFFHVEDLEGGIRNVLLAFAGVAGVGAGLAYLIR

IC50 [µM] | Structure (SMILES) | further results
7.88 | CCc1sc2ncnc(N[C@H](Cc3cccc4ccccc34)C(=O)O)c2c1-c1cccc2ccccc12 (single isomer, unassigned) [Example 186, N-[6-ethyl-5-(naphthalen-1-yl)thieno[2,3-d]pyrimidin-4-yl]-3-naphthalen-1-yl-D-alanine] | 
0.839 | CCc1sc2ncnc(N[C@@H](Cn3cccn3)C(=O)O)c2c1-c1cccc(Cl)c1C (racemic) [Example 110, N-[5-(3-chloro-2-methylphenyl)-6-ethylthieno[2,3-d]pyrimidin-4-yl]-3-(1H-pyrazol-1-yl)alanine] | 
1.11 | CCc1sc2ncnc(NC(Cc3ccccc3)C(=O)O)c2c1-c1cncc2ccccc12 [Example 82, N-[6-ethyl-(5Ra)-5-(isoquinolin-4-yl)thieno[2,3-d]pyrimidin-4-yl]-D-phenylalanine] | 
20.3 | CCc1sc2ncnc(NC(Cc3ccccc3)C(=O)O)c2c1-c1cccc2c1c(Cl)cn2CCN1CCN(C)CC1 [Example 239, N-((5Ra)-5-{3-chloro-1-[2-(4-methylpiperazin-1-yl)ethyl]-1H-indol-4-yl}-6-ethyl-thieno[2,3-d]pyrimidin-4-yl)-D-phenylalanine] | 
 | CCc1sc2ncnc(N[C@H](Cc3ccccc3Br)C(=O)O)c2c1-c1cccc(Cl)c1C [Example 139, 2-bromo-N-[(5Ra)-5-(3-chloro-2-methylphenyl)-6-ethylthieno[2,3-d]pyrimidin-4-yl]-D-phenylalanine] | percentage fluorescence polarisation inhibition, Mcl-1 FP (partial inhibitors, @ 10 μM test compound): 32.75% @ 10 μM
8.37 | CCc1sc2ncnc(NC(Cc3cccnc3)C(=O)O)c2c1-c1cccc2ccccc12 [Example 163, N-[6-ethyl-(5Ra)-5-(naphthalen-1-yl)thieno[2,3-d]pyrimidin-4-yl]-3-pyridin-3-yl-D-alanine] | 
14.2 | CCc1sc2ncnc(N[C@H](Cc3cn(Cc4ccccc4)cn3)C(=O)O)c2c1-c1cccc2ccccc12 [Example 195, 1-benzyl-N-[6-ethyl-5-(naphthalen-1-yl)thieno[2,3-d]pyrimidin-4-yl]-D-histidine] | 
8.41 | CCc1sc2ncnc(NC(Cc3ccc(F)cc3)C(=O)O)c2c1-c1cccc2ccccc12 [Example 176, N-[6-ethyl-(5Ra)-5-(naphthalen-1-yl)thieno[2,3-d]pyrimidin-4-yl]-4-fluoro-D-phenylalanine] | 
 | CCc1sc2ncnc(N[C@H](Cc3ccccc3)C(=O)O)c2c1-c1cccc2c1c(Cl)cn2CCN1CCCC1 [Example 232, N-((5Ra)-5-{3-chloro-1-[2-(pyrrolidin-1-yl)ethyl]-1H-indol-4-yl}-6-ethyl-thieno[2,3-d]pyrimidin-4-yl)-D-phenylalanine] | percentage fluorescence polarisation inhibition, Mcl-1 FP [1]: 62.2% @ 50 μM
0.208 | CCc1sc2ncnc(NC(Cc3ccccc3Br)C(=O)O)c2c1-c1cccc(Cl)c1C [Example 140, 2-bromo-N-[(5Sa)-5-(3-chloro-2-methylphenyl)-6-ethylthieno[2,3-d]pyrimidin-4-yl]-D-phenylalanine] | 
1.39 | CCc1sc2ncnc(NC(Cc3ccccc3)C(=O)O)c2c1-c1cccc2c1c(Cl)cn2CCN1CCCCC1 [Example 235, N-((5Sa)-5-{3-chloro-1-[2-(piperidin-1-yl)ethyl]-1H-indol-4-yl}-6-ethyl-thieno[2,3-d]pyrimidin-4-yl)-D-phenylalanine] | 
0.632 | O=C(O)[C@@H](Cc1ccccc1)Nc1ncnc2sc(C(F)F)c(-c3cccc4ccccc34)c12 (single isomer, unassigned) [Example 208, N-[6-(difluoromethyl)-5-(naphthalen-1-yl)thieno[2,3-d]pyrimidin-4-yl]-D-phenylalanine] | 
3.24 | CCc1sc2ncnc(NC(Cc3ccccc3)C(=O)O)c2c1-c1cccc2c1c(Cl)cn2CCN(C)C [Example 230, N-((5Sa)-5-{3-chloro-1l-[2-(dimethylamino)ethyl]-1H-indol-4-yl}-6-ethyl-thieno[2,3-d]pyrimidin-4-yl)-D-phenylalanine] | 
3.23 | CCc1sc2ncnc(NC(Cc3cccc(F)c3)C(=O)O)c2c1-c1cccc2ccccc12 [Example 178, N-[6-ethyl-(5Ra)-5-(naphthalen-1-yl)thieno[2,3-d]pyrimidin-4-yl]-3-fluoro-D-phenylalanine] | 
0.541 | CCc1sc2ncnc(NC(Cc3ccccc3)C(=O)O)c2c1-c1cc(Cl)c(OCCN2CCN(C)CC2)c(Cl)c1C [Example 54, N-((5Sa)-5-{3,5-dichloro-2-methyl-4-[2-(4-methylpiperazin-1-yl)ethoxy]phenyl}-6-ethylthieno[2,3-d]pyrimidin-4-yl)-D-phenylalanine] | 
2.1 | CCc1sc2ncnc(NC(Cc3ccccc3F)C(=O)O)c2c1-c1cccc2ccccc12 [Example 180, N-[6-ethyl-(5Ra)-5-(naphthalen-1-yl)thieno[2,3-d]pyrimidin-4-yl]-2-fluoro-D-phenylalanine] | 

IC50 [µM] | Structure (SMILES) | further results
0.06 | CCc1sc2ncnc(NC(Cc3ccccc3)C(=O)O)c2c1-c1ccc(OCCN2CCN(C)CC2)c(Cl)c1C [Example 62, N-((5Sa)-5-{3-chloro-2-methyl-4-[2-(4-methylpiperazin-1-yl)ethoxy]phenyl}-6-ethylthieno[2,3-d]pyrimidin-4-yl)-D-phenylalanine] | 
2.18 | CCc1sc2ncnc(NC(Cc3ccccn3)C(=O)O)c2c1-c1cccc2c1c(Cl)cn2CCN1CCN(C)CC1 [Example 248, N-((5Sa)-5-{3-chloro-1-[2-(4-methylpiperazin-1-yl)ethyl]-1H-indol-4-yl}-6-ethyl-thieno[2,3-d]pyrimidin-4-yl)-3-pyridin-2-yl-D-alanine] | 
 | CCc1sc2ncnc(NC(Cc3ccccn3)C(=O)O)c2c1-c1cccc(Cl)c1C [Example 151, N-[(5Ra)-5-(3-chloro-2-methylphenyl)-6-ethylthieno[2,3-d]pyrimidin-4-yl]-3-pyridin-2-yl-D-alanine] | percentage fluorescence polarisation inhibition, Mcl-1 FP (partial inhibitors, @ 66.7 μM test compound): 71.3% @ 66.7 μM
0.974 | CCc1sc2ncnc(NC(Cc3ccccc3)C(=O)O)c2c1-c1cccc(F)c1C [Example 70, N-[6-ethyl-(5Ra)-5-(3-fluoro-2-methylphenyl)thieno[2,3-d]pyrimidin-4-yl]-D-phenylalanine] | 
0.309 | CCc1sc2ncnc(NC(Cc3ccccc3OCCN(C)C)C(=O)O)c2c1-c1cccc(Cl)c1C [Example 156, N-[(5Sa)-5-(3-chloro-2-methylphenyl)-6-ethylthieno[2,3-d]pyrimidin-4-yl]-2-[2-(dimethylamino)ethoxy]-D-phenylalanine] | 
8.84 | CC(O)c1sc2ncnc(N[C@H](Cc3ccccc3)C(=O)O)c2c1-c1cccc2ccccc12 (single isomer, unassigned) [Example 206, N-[6-(1-hydroxyethyl)-5-(naphthalen-1-yl)thieno[2,3-d]pyrimidin-4-yl]-D-phenylalanine] | 
0.091 | CCc1sc2ncnc(N[C@H](CC3CCCCC3)C(=O)O)c2c1-c1cccc2[nH]ccc12 (single isomer, unassigned) [Example 242, 3-cyclohexyl-N-[6-ethyl-5-(1H-indol-4-yl)thieno[2,3-d]pyrimidin-4-yl]-D-alanine] | 
0.171 | CCc1sc2ncnc(N[C@H](Cc3ccccn3)C(=O)O)c2c1-c1cccc2ccccc12 [Example 191, N-[6-ethyl-5-(naphthalen-1-yl)thieno[2,3-d]pyrimidin-4-yl]-3-pyridin-2-yl-D-alanine] | 
2.08 | CCc1sc2ncnc(N[C@H](Cc3cccnc3)C(=O)O)c2c1-c1cccc2ccccc12 [Example 192, N-[6-ethyl-5-(naphthalen-1-yl)thieno[2,3-d]pyrimidin-4-yl]-3-pyridin-3-yl-D-alanine] | 
0.407 | CCc1sc2ncnc(N[C@H](Cc3ccccc3OC)C(=O)O)c2c1-c1cccc2ccccc12 [Example 182, N-[6-ethyl-5-(naphthalen-1-yl)thieno[2,3-d]pyrimidin-4-yl]-2-methoxy-D-phenylalanine] | 
 | CC(O)c1sc2ncnc(N[C@H](Cc3ccccc3)C(=O)O)c2c1-c1cccc2ccccc12 (single isomer, unassigned) [Example 203, N-[6-(1-hydroxyethyl)-5-(naphthalen-1-yl)thieno[2,3-d]pyrimidin-4-yl]-D-phenylalanine] | percentage fluorescence polarisation inhibition, Mcl-1 FP (partial inhibitors, @ 100 μM test compound, 100 µM): 71.85% @ 100 μM
1.15 | CCc1sc2ncnc(N[C@H](Cc3ccccc3C)C(=O)O)c2c1-c1cccc2ccccc12 (single isomer, unassigned) [Example 167, N-[6-ethyl-5-(naphthalen-1-yl)thieno[2,3-d]pyrimidin-4-yl]-2-methyl-D-phenylalanine] | 
 | CCc1sc2ncnc(N[C@H](Cc3ccccc3C#N)C(=O)O)c2c1-c1cccc(Cl)c1C [Example 126, N-[(5Ra)-5-(3-chloro-2-methylphenyl)-6-ethylthieno[2,3-d]pyrimidin-4-yl]-2-cyano-D-phenylalanine] | percentage fluorescence polarisation inhibition, Mcl-1 FP [1]: 41.2% @ 50 μM
0.569 | CCc1sc2ncnc(NC(Cc3ccccc3)C(=O)O)c2c1-c1cccc2c1c(Cl)cn2CCN1CCOCC1 [Example 237, N-((5Sa)-5-{3-chloro-1-[2-(morpholin-4-yl)ethyl]-1H-indol-4-yl}-6-ethyl-thieno[2,3-d]pyrimidin-4-yl)-D-phenylalanine] | 
2.91 | Cc1sc2ncnc(N[C@H](Cc3ccccc3)C(=O)O)c2c1-c1cccc2ccccc12 [Example 196, N-[6-methyl-5-(naphthalen-1-yl)thieno[2,3-d]pyrimidin-4-yl]-D-phenylalanine] | 
 | CCc1sc2ncnc(N[C@H](Cc3ccccc3)C(=O)O)c2c1-c1cccc2cccnc12 [Example 99, N-[6-ethyl-5-(quinolin-8-yl)thieno[2,3-d]pyrimidin-4-yl]-D-phenylalanine] | inhibition at 200 µM (partial inhibitors, @ 200 μM test compound, read-out: percentage fluorescence polarisation inhibition, Mcl-1 FP): 28.3%
